According to PubChem BioAssay AID272 (DTP/NCI, 2004):
Values joined by “and” are separate entries in the source; they are usually repeats but may differ in a detail not shown here. Equal values may be shown once. Inconclusive results are not listed.

Test system: Lewis lung carcinoma i.m., BDF1 mice, T/C %
Experiment: NCI In Vivo Anticancer Drug Screen. Data for tumor model Lewis Lung Carcinoma (intramuscular) in B6D2F1 (BDF1) mice
Outline: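 Value is the ratio of a treated-group measurement (T) to the matching vehicle-control measurement (C), using either survival or tumour size in mice bearing transplanted tumours.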

[1] = endpoint: mean tumor weight (est.), dose: 100.0 mg/kg/injection, schedule: Q01DX011 (ip), vehicle: saline with Tween-80, higher = larger tumour
[2] = endpoint: median survival time, dose: 100.0 mg/kg/injection, schedule: Q01DX011 (ip), vehicle: saline with Tween-80, higher = longer survival
[3] = endpoint: median survival time, dose: 8.0 mg/kg/injection, schedule: Q01DX011 (ip), vehicle: saline, higher = longer survival
[4] = endpoint: median survival time, dose: 16.0 mg/kg/injection, schedule: Q01DX011 (ip), vehicle: saline, higher = longer survival
[5] = endpoint: median survival time, dose: 32.0 mg/kg/injection, schedule: Q01DX011 (ip), vehicle: saline, higher = longer survival

Structure (SMILES): CCCCCCCCCCCCCC[n+]1ccccc1
- T/C (endpoint: mean tumor weight (est.), dose: 0.06 mg/kg/injection, schedule: Q01DX011 (ip), vehicle: saline, higher = larger tumour): 82 % of control
- T/C (endpoint: mean tumor weight (est.), dose: 0.07 mg/kg/injection, schedule: Q01DX011 (ip), vehicle: saline, higher = larger tumour): 46 % of control
- T/C (endpoint: mean tumor weight (est.), dose: 0.12 mg/kg/injection, schedule: Q01DX011 (ip), vehicle: saline, higher = larger tumour): 80 % of control
- T/C (endpoint: mean tumor weight (est.), dose: 0.13 mg/kg/injection, schedule: Q01DX011 (ip), vehicle: saline, higher = larger tumour): 42 % of control
- T/C (endpoint: mean tumor weight (est.), dose: 0.5 mg/kg/injection, schedule: Q01DX011 (ip), vehicle: saline, higher = larger tumour): 84 % of control
- T/C (endpoint: median survival time, dose: 0.06 mg/kg/injection, schedule: Q01DX011 (ip), vehicle: saline, higher = longer survival): 100 % of control
- T/C (endpoint: median survival time, dose: 0.07 mg/kg/injection, schedule: Q01DX011 (ip), vehicle: saline, higher = longer survival): 93 % of control
- T/C (endpoint: median survival time, dose: 0.12 mg/kg/injection, schedule: Q01DX011 (ip), vehicle: saline, higher = longer survival): 100 % of control
- T/C (endpoint: median survival time, dose: 0.13 mg/kg/injection, schedule: Q01DX011 (ip), vehicle: saline, higher = longer survival): 100 % of control
- T/C (endpoint: median survival time, dose: 0.25 mg/kg/injection, schedule: Q01DX011 (ip), vehicle: saline, higher = longer survival): 91 % of control and 94 % of control
- T/C (endpoint: median survival time, dose: 0.5 mg/kg/injection, schedule: Q01DX011 (ip), vehicle: saline, higher = longer survival): 100 % of control

Structure (SMILES): CC1OC(=O)C(C2OC2C)=CC1O (stereo not given)
- T/C (endpoint: mean tumor weight, dose: 6.25 mg/kg/injection, schedule: Q01DX011 (ip), vehicle: saline, higher = larger tumour): 93 % of control
- T/C (endpoint: mean tumor weight, dose: 12.5 mg/kg/injection, schedule: Q01DX011 (ip), vehicle: saline, higher = larger tumour): 99 % of control
- T/C (endpoint: mean tumor weight, dose: 25.0 mg/kg/injection, schedule: Q01DX011 (ip), vehicle: saline, higher = larger tumour): 78 % of control
- T/C (endpoint: median survival time, dose: 6.25 mg/kg/injection, schedule: Q01DX011 (ip), vehicle: saline, higher = longer survival): 102 % of control
- T/C (endpoint: median survival time, dose: 12.5 mg/kg/injection, schedule: Q01DX011 (ip), vehicle: saline, higher = longer survival): 109 % of control
- T/C (endpoint: median survival time, dose: 25.0 mg/kg/injection, schedule: Q01DX011 (ip), vehicle: saline, higher = longer survival): 107 % of control

Structure (SMILES): Nc1ncnc2c1ncn2Cc1ccccc1
- T/C (endpoint: mean tumor weight (est.), dose: 12.5 mg/kg/injection, schedule: Q01DX011 (ip), vehicle: saline with Tween-80, higher = larger tumour): 101 % of control
- T/C (endpoint: mean tumor weight (est.), dose: 25.0 mg/kg/injection, schedule: Q01DX011 (ip), vehicle: saline with Tween-80, higher = larger tumour): 102 % of control
- T/C (endpoint: mean tumor weight (est.), dose: 50.0 mg/kg/injection, schedule: Q01DX011 (ip), vehicle: saline with Tween-80, higher = larger tumour): 76 % of control
- T/C [1]: 67 % of control
- T/C (endpoint: median survival time, dose: 12.5 mg/kg/injection, schedule: Q01DX011 (ip), vehicle: saline with Tween-80, higher = longer survival): 89 % of control
- T/C (endpoint: median survival time, dose: 25.0 mg/kg/injection, schedule: Q01DX011 (ip), vehicle: saline with Tween-80, higher = longer survival): 100 % of control
- T/C (endpoint: median survival time, dose: 50.0 mg/kg/injection, schedule: Q01DX011 (ip), vehicle: saline with Tween-80, higher = longer survival): 93 % of control
- T/C [2]: 97 % of control

Structure (SMILES): CSc1nc(N)cc(NC(=O)CCl)n1
- T/C (endpoint: mean tumor weight (est.), dose: 25.0 mg/kg/injection, schedule: Q01DX011 (ip), vehicle: saline, higher = larger tumour): 92 % of control
- T/C (endpoint: mean tumor weight (est.), dose: 50.0 mg/kg/injection, schedule: Q01DX011 (ip), vehicle: saline, higher = larger tumour): 69 % of control
- T/C (endpoint: mean tumor weight (est.), dose: 100.0 mg/kg/injection, schedule: Q01DX011 (ip), vehicle: saline, higher = larger tumour): 35 % of control

Structure (SMILES): FC(F)(F)c1nc2nc(Cl)c(Cl)nc2[nH]1
- T/C [3]: 107 % of control
- T/C [4]: 112 % of control
- T/C [5]: 116 % of control

Structure (SMILES): Cc1nc(N)c(C)c(C(=O)O)n1
- T/C (endpoint: median survival time, dose: 4.0 mg/kg/injection, schedule: Q01DX009 (ip), vehicle: water, higher = longer survival): 110 % of control
- T/C (endpoint: median survival time, dose: 8.0 mg/kg/injection, schedule: Q01DX009 (ip), vehicle: water, higher = longer survival): 105 % of control
- T/C (endpoint: median survival time, dose: 64.0 mg/kg/injection, schedule: Q01DX009 (ip), vehicle: water, higher = longer survival): 92 % of control

Structure (SMILES): NC(C=O)C(O)C(O)C(O)CO (stereo not given)
- T/C (endpoint: mean tumor weight (est.), dose: 750.0 mg/kg/injection, schedule: Q01DX011 (ip), vehicle: saline, higher = larger tumour): 77 % of control
- T/C (endpoint: mean tumor weight (est.), dose: 1500.0 mg/kg/injection, schedule: Q01DX011 (ip), vehicle: saline, higher = larger tumour): 93 % of control
- T/C (endpoint: mean tumor weight (est.), dose: 3000.0 mg/kg/injection, schedule: Q01DX011 (ip), vehicle: saline, higher = larger tumour): 89 % of control
- T/C (endpoint: median survival time, dose: 1500.0 mg/kg/injection, schedule: Q01DX011 (ip), vehicle: saline, higher = longer survival): 104 % of control
- T/C (endpoint: median survival time, dose: 3000.0 mg/kg/injection, schedule: Q01DX011 (ip), vehicle: saline, higher = longer survival): 104 % of control

Structure (SMILES): N[C@@H](Cc1ccc(N(CCCl)CCCl)cc1)C(=O)O
- T/C (endpoint: mean tumor weight, dose: 0.38 mg/kg/injection, schedule: Q01DX011 (ip), vehicle: other, higher = larger tumour): 55 % of control
- T/C (endpoint: mean tumor weight, dose: 0.38 mg/kg/injection, schedule: Q01DX011 (ip), vehicle: saline, higher = larger tumour): 86 % of control
- T/C (endpoint: mean tumor weight, dose: 0.75 mg/kg/injection, schedule: Q01DX011 (ip), vehicle: other, higher = larger tumour): 48 % of control
- T/C (endpoint: mean tumor weight, dose: 0.75 mg/kg/injection, schedule: Q01DX011 (ip), vehicle: saline, higher = larger tumour): 77 % of control
- T/C (endpoint: mean tumor weight, dose: 1.5 mg/kg/injection, schedule: Q01DX011 (ip), vehicle: other, higher = larger tumour): 69 % of control
- T/C (endpoint: mean tumor weight, dose: 3.0 mg/kg/injection, schedule: Q01DX011 (ip), vehicle: other, higher = larger tumour): 29 % of control
- T/C (endpoint: mean tumor weight, dose: 3.0 mg/kg/injection, schedule: Q01DX011 (ip), vehicle: saline, higher = larger tumour): 47 % of control and 59 % of control
- T/C (endpoint: median survival time, dose: 0.38 mg/kg/injection, schedule: Q01DX011 (ip), vehicle: other, higher = longer survival): 111 % of control
- T/C (endpoint: median survival time, dose: 0.38 mg/kg/injection, schedule: Q01DX011 (ip), vehicle: saline, higher = longer survival): 105 % of control and 112 % of control
- T/C (endpoint: median survival time, dose: 0.6 mg/kg/injection, schedule: Q01DX011 (ip), vehicle: saline, higher = longer survival): 104 % of control and 116 % of control
- T/C (endpoint: median survival time, dose: 0.75 mg/kg/injection, schedule: Q01DX011 (ip), vehicle: other, higher = longer survival): 118 % of control
- T/C (endpoint: median survival time, dose: 0.75 mg/kg/injection, schedule: Q01DX011 (ip), vehicle: saline, higher = longer survival): 110 % of control and 112 % of control and 120 % of control
- T/C (endpoint: median survival time, dose: 1.2 mg/kg/injection, schedule: Q01DX011 (ip), vehicle: saline, higher = longer survival): 108 % of control
- T/C (endpoint: median survival time, dose: 1.5 mg/kg/injection, schedule: Q01DX011 (ip), vehicle: other, higher = longer survival): 101 % of control
- T/C (endpoint: median survival time, dose: 1.5 mg/kg/injection, schedule: Q01DX011 (ip), vehicle: saline, higher = longer survival): 91 % of control
- T/C (endpoint: median survival time, dose: 2.5 mg/kg/injection, schedule: Q01DX011 (ip), vehicle: saline, higher = longer survival): 103 % of control
- T/C (endpoint: median survival time, dose: 3.24 mg/kg/injection, schedule: Q01DX001 (ip), vehicle: saline, higher = longer survival): 108 % of control
- T/C (endpoint: median survival time, dose: 5.4 mg/kg/injection, schedule: Q01DX001 (ip), vehicle: saline, higher = longer survival): 119 % of control

Structure (SMILES): CC(=N/NC(N)=S)/C(C)=N/NC(N)=S
- T/C [1]: 73 % of control
- T/C (endpoint: mean tumor weight (est.), dose: 200.0 mg/kg/injection, schedule: Q01DX011 (ip), vehicle: saline with Tween-80, higher = larger tumour): 65 % of control
- T/C (endpoint: mean tumor weight (est.), dose: 400.0 mg/kg/injection, schedule: Q01DX011 (ip), vehicle: saline with Tween-80, higher = larger tumour): 42 % of control
- T/C [2]: 93 % of control
- T/C (endpoint: median survival time, dose: 200.0 mg/kg/injection, schedule: Q01DX011 (ip), vehicle: saline with Tween-80, higher = longer survival): 91 % of control
- T/C (endpoint: median survival time, dose: 400.0 mg/kg/injection, schedule: Q01DX011 (ip), vehicle: saline with Tween-80, higher = longer survival): 91 % of control

Structure (SMILES): Nc1nc(=O)n(C2OC(CO)C(O)C2O)cc1F (stereo not given)
- T/C (endpoint: median survival time, dose: 4.0 mg/kg/injection, schedule: Q01DX011 (ip), vehicle: saline, higher = longer survival): 98 % of control
- T/C [3]: 117 % of control
- T/C [4]: 98 % of control
- T/C [5]: 110 % of control

Structure (SMILES): NC(=S)N/N=C/c1ccc(O)cn1
- T/C (endpoint: mean tumor weight, dose: 5.0 mg/kg/injection, schedule: Q03HX024 (ip), vehicle: other, higher = larger tumour): 60 % of control
- T/C (endpoint: mean tumor weight, dose: 10.0 mg/kg/injection, schedule: Q03HX024 (ip), vehicle: other, higher = larger tumour): 46 % of control
- T/C (endpoint: mean tumor weight, dose: 50.0 mg/kg/injection, schedule: Q01DX009 (ip), vehicle: other, higher = larger tumour): 15 % of control
- T/C (endpoint: mean tumor weight, dose: 50.0 mg/kg/injection, schedule: Q01DX011 (ip), vehicle: other, higher = larger tumour): 18 % of control and 40 % of control
- T/C (endpoint: mean tumor weight, dose: 100.0 mg/kg/injection, schedule: Q01DX011 (ip), vehicle: other, higher = larger tumour): 17 % of control
- T/C (endpoint: mean tumor weight, dose: 200.0 mg/kg/injection, schedule: Q04DX003 (ip), vehicle: other, higher = larger tumour): 47 % of control
- T/C (endpoint: mean tumor weight, dose: 400.0 mg/kg/injection, schedule: Q04DX003 (ip), vehicle: other, higher = larger tumour): 28 % of control
- T/C (endpoint: median survival time, dose: 5.0 mg/kg/injection, schedule: Q03HX024 (ip), vehicle: other, higher = longer survival): 108 % of control
- T/C (endpoint: median survival time, dose: 10.0 mg/kg/injection, schedule: Q03HX024 (ip), vehicle: other, higher = longer survival): 112 % of control
- T/C (endpoint: median survival time, dose: 50.0 mg/kg/injection, schedule: Q01DX011 (ip), vehicle: other, higher = longer survival): 113 % of control
- T/C (endpoint: median survival time, dose: 100.0 mg/kg/injection, schedule: Q01DX009 (ip), vehicle: other, higher = longer survival): 170 % of control
- T/C (endpoint: median survival time, dose: 100.0 mg/kg/injection, schedule: Q01DX011 (ip), vehicle: other, higher = longer survival): 103 % of control
- T/C (endpoint: median survival time, dose: 200.0 mg/kg/injection, schedule: Q04DX003 (ip), vehicle: other, higher = longer survival): 120 % of control
